What was measured:
Assay in all cases: KINOMEscan
Assay type in all cases: binding
Details in all cases: read-out: % Ctrl
MAP3K15 = molecular target: T1, MAP3K15 (Homo sapiens, UniProt Q6ZN16)
T1 construct: purchased DiscoveRx KINOMEscan
Outline: (§1)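 Competition binding panel of 442 non-mutant kinases: test compound at 5 and 10 μM competed with an active-site-directed ligand for 1 h with shaking. Bound kinase was eluted with 0.5 μM ligand and quantified by qPCR; %Ctrl = (compound − positive control)/(DMSO − positive control) × 100, lower meaning tighter binding.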

ERK8 = molecular target: T2, ERK8 (Homo sapiens, UniProt Q8TD08)
T2 construct: purchased DiscoveRx KINOMEscan
Outline: as §1

TLK1 = molecular target: T3, TLK1 (Homo sapiens, UniProt Q9UKI8)
T3 construct: purchased DiscoveRx KINOMEscan
Outline: as §1

MAP4K3 = molecular target: T4, MAP4K3 (Homo sapiens, UniProt Q8IVH8)
T4 construct: purchased DiscoveRx KINOMEscan
Outline: as §1

RIOK3 = molecular target: T5, RIOK3 (Homo sapiens, UniProt O14730)
T5 construct: purchased DiscoveRx KINOMEscan
Outline: as §1

PCTK3 = molecular target: T6, PCTK3 (Homo sapiens, UniProt Q07002)
T6 construct: purchased DiscoveRx KINOMEscan
Outline: as §1

MYLK2 = molecular target: T7, MYLK2 (Homo sapiens, UniProt Q9H1R3)
T7 construct: purchased DiscoveRx KINOMEscan
T7 sequence (Q9H1R3 whole entry): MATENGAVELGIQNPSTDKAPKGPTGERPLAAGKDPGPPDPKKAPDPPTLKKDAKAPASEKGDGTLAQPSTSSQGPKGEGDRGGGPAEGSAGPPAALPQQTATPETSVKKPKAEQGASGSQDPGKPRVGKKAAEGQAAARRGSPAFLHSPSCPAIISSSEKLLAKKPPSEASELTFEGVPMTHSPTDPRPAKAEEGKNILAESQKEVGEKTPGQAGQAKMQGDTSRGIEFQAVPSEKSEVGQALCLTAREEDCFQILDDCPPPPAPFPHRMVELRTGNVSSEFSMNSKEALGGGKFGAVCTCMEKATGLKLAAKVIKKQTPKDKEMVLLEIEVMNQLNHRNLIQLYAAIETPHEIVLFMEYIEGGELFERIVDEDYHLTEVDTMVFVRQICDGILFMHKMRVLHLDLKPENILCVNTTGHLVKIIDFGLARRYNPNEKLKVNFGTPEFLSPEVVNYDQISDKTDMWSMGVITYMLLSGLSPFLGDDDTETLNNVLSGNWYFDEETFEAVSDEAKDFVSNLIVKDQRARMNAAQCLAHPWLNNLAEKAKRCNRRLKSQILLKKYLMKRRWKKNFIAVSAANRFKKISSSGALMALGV
Outline: as §1

EPHB3 = molecular target: T8, EPHB3 (Homo sapiens, UniProt P54753)
T8 construct: purchased DiscoveRx KINOMEscan
T8 sequence (P54753 34-998): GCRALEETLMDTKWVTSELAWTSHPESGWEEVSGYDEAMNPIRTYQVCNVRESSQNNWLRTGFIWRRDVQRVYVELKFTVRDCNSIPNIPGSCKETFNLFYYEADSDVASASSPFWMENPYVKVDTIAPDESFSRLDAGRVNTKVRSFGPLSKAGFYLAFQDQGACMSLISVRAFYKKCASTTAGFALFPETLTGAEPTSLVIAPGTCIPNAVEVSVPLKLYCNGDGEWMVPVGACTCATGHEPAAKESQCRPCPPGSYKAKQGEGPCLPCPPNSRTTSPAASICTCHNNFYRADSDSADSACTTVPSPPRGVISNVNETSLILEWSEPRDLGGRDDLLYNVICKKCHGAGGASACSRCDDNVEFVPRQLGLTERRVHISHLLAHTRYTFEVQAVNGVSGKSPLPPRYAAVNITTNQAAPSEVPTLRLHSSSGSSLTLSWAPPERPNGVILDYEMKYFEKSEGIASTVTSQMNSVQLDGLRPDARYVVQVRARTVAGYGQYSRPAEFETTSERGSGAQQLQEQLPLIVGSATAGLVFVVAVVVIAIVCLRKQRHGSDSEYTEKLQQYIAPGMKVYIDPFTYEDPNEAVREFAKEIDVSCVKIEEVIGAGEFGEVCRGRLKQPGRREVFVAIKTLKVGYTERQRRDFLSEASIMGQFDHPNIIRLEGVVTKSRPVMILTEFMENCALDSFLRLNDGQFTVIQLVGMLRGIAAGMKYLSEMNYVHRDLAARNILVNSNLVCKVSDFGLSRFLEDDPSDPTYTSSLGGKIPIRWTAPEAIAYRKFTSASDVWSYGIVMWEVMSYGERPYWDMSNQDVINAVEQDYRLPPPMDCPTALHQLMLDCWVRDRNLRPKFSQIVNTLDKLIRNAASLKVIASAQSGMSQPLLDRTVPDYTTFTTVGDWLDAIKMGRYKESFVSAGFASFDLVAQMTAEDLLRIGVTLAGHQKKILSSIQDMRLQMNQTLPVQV
Outline: as §1

FRK = molecular target: T9, FRK (Homo sapiens, UniProt P42685)
T9 construct: purchased DiscoveRx KINOMEscan
Outline: as §1

ACVR2A = molecular target: T10, ACVR2A (Homo sapiens, UniProt P27037)
T10 construct: purchased DiscoveRx KINOMEscan
Outline: as §1

MST3 = molecular target: T11, MST3 (Homo sapiens, UniProt Q9Y6E0)
T11 construct: purchased DiscoveRx KINOMEscan
Outline: as §1

EPHA3 = molecular target: T12, EPHA3 (Homo sapiens, UniProt P29320)
T12 construct: purchased DiscoveRx KINOMEscan
Outline: as §1

OSR1 = molecular target: T13, OSR1 (Homo sapiens, UniProt O95747)
T13 construct: purchased DiscoveRx KINOMEscan
Outline: as §1

MAP4K5 = molecular target: T14, MAP4K5 (Homo sapiens, UniProt Q9Y4K4)
T14 construct: purchased DiscoveRx KINOMEscan
T14 sequence (Q9Y4K4 whole entry): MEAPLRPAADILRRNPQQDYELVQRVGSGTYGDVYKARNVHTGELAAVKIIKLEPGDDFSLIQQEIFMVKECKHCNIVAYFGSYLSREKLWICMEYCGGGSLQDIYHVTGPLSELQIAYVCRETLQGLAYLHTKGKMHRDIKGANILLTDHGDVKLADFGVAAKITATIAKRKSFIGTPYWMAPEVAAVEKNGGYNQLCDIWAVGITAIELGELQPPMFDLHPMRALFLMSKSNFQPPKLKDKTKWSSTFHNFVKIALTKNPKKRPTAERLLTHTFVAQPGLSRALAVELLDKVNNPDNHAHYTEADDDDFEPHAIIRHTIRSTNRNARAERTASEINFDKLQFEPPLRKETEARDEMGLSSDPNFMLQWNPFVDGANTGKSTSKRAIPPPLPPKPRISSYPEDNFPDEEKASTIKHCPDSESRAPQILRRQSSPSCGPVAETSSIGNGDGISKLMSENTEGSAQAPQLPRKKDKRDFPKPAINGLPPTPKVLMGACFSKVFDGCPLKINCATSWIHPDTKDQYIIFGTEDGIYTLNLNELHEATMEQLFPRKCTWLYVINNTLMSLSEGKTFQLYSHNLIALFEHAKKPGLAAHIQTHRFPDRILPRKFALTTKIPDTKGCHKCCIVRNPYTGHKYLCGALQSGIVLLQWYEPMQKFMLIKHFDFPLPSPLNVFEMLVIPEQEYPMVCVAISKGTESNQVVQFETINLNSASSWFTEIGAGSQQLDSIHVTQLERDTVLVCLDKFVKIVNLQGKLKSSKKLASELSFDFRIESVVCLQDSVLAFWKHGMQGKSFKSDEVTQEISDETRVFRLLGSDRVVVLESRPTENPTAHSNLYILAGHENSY
Outline: as §1

CSNK1A1 = molecular target: T15, CSNK1A1 (Homo sapiens, UniProt P48729)
T15 construct: purchased DiscoveRx KINOMEscan
Outline: as §1

PRKD3 = molecular target: T16, PRKD3 (Homo sapiens, UniProt O94806)
T16 construct: purchased DiscoveRx KINOMEscan
Outline: as §1

[1] = molecular target: T17, RSK4(Kin.Dom.1-N-terminal) (Homo sapiens, UniProt Q9UK32)
T17 construct: RSK4(Kin.Dom.1-N-terminal); purchased DiscoveRx KINOMEscan
T17 sequence (Q9UK32 1-400 limits assumed): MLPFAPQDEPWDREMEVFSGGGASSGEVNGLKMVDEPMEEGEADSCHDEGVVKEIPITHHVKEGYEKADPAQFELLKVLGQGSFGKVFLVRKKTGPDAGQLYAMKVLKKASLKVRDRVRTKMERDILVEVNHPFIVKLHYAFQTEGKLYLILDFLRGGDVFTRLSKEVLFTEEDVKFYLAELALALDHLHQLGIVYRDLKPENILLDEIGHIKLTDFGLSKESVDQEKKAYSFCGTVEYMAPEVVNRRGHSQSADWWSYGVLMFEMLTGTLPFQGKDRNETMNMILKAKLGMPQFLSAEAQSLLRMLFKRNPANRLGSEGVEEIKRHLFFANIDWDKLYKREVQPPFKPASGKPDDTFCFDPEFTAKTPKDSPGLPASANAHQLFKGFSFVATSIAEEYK
Outline: as §1

[2] = molecular target: T18, RSK4(Kin.Dom.2-C-terminal) (Homo sapiens, UniProt Q9UK32)
T18 construct: RSK4(Kin.Dom.2-C-terminal); purchased DiscoveRx KINOMEscan
Outline: as §1

CSK = molecular target: T19, CSK (Homo sapiens, UniProt P41240)
T19 construct: purchased DiscoveRx KINOMEscan
Outline: as §1

PKAC-alpha = molecular target: T20, PKAC-alpha (Homo sapiens, UniProt P17612)
T20 construct: purchased DiscoveRx KINOMEscan
Outline: as §1

CSNK1G2 = molecular target: T21, CSNK1G2 (Homo sapiens, UniProt P78368)
T21 construct: purchased DiscoveRx KINOMEscan
Outline: as §1

PYK2 = molecular target: T22, PYK2 (Homo sapiens, UniProt Q14289)
T22 construct: purchased DiscoveRx KINOMEscan
T22 sequence (Q14289 whole entry): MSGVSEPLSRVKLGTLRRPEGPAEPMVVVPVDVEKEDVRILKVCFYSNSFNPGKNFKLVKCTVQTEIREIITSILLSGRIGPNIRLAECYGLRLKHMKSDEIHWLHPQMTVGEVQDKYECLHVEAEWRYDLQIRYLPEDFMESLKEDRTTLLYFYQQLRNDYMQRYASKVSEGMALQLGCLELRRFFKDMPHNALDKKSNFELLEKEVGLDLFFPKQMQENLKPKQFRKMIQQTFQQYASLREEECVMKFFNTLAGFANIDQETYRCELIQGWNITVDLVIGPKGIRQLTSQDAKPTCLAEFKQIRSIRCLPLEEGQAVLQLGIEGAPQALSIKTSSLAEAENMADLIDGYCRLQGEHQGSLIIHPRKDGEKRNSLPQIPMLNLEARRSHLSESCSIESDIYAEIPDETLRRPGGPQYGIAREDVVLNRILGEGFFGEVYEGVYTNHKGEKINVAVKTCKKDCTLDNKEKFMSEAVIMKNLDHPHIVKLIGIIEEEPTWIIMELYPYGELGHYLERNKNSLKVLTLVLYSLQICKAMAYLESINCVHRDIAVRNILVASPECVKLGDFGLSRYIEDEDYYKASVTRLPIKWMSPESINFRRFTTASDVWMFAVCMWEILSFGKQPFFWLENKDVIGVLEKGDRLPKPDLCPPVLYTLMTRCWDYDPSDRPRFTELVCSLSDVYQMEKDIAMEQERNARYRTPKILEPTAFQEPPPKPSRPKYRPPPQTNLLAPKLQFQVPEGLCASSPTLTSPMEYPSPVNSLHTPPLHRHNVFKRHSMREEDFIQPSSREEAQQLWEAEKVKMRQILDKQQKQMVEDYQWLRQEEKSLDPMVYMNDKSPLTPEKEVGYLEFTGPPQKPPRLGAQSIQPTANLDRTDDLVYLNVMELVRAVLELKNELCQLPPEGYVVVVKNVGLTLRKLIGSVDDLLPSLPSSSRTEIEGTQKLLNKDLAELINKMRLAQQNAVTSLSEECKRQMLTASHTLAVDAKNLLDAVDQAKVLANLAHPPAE
Outline: as §1

ULK3 = molecular target: T23, ULK3 (Homo sapiens, UniProt Q6PHR2)
T23 construct: purchased DiscoveRx KINOMEscan
Outline: as §1

ITK = molecular target: T24, ITK (Homo sapiens, UniProt Q08881)
T24 construct: purchased DiscoveRx KINOMEscan
Outline: as §1

CDK8 = molecular target: T25, CDK8 (Homo sapiens, UniProt P49336)
T25 construct: purchased DiscoveRx KINOMEscan
T25 sequence (P49336 whole entry): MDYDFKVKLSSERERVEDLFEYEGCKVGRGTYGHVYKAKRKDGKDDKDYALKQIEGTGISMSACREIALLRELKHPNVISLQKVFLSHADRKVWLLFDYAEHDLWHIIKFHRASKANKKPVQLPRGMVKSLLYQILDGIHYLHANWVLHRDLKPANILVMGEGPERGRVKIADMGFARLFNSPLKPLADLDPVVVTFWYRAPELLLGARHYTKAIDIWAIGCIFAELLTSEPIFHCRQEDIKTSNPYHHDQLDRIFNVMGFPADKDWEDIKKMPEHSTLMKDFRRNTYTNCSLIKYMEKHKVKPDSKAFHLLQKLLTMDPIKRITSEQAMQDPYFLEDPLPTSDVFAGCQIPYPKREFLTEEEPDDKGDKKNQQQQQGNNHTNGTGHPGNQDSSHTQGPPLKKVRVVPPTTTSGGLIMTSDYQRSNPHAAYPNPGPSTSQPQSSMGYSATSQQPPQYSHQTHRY
Outline: as §1

PIK3C2B = molecular target: T26, PIK3C2B (Homo sapiens, UniProt O00750)
T26 construct: purchased DiscoveRx KINOMEscan
Outline: as §1

IRAK3 = molecular target: T27, IRAK3 (Homo sapiens, UniProt Q9Y616)
T27 construct: purchased DiscoveRx KINOMEscan
T27 sequence (Q9Y616 whole entry): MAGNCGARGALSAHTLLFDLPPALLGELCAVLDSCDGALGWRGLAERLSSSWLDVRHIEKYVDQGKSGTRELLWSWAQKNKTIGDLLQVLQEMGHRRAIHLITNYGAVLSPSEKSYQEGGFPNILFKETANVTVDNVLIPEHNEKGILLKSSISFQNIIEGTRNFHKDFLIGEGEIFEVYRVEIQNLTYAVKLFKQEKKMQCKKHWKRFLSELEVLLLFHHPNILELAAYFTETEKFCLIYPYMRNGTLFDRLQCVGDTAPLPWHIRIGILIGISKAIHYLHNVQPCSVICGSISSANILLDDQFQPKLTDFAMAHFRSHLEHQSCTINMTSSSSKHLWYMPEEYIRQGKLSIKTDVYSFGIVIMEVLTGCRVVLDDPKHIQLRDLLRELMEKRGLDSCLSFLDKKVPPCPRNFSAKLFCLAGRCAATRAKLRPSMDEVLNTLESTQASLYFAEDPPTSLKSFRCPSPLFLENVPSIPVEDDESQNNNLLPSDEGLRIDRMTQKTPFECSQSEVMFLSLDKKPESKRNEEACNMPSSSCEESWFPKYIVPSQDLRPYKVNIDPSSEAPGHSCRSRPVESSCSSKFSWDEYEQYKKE
Outline: as §1

PFCDPK1(P.falciparum) = molecular target: T28, PFCDPK1(P.falciparum) (Plasmodium falciparum, UniProt P62344)
T28 construct: purchased DiscoveRx KINOMEscan
Outline: as §1

NDR2 = molecular target: T29, NDR2 (Homo sapiens, UniProt Q9Y2H1)
T29 construct: purchased DiscoveRx KINOMEscan
Outline: as §1

MARK1 = molecular target: T30, MARK1 (Homo sapiens, UniProt Q9P0L2)
T30 construct: purchased DiscoveRx KINOMEscan
Outline: as §1

SMILES: Cc1ccc(C2=Nc3cccnc3S(=O)(=O)c3ccccc32)cc1 [TBPT, 6-(p-tolyl)benzo[f] pyrido[2,3-b][1,4] thiazepine 11,11-dioxide]
- remaining binding at 5 µM (MAP3K15; 5 μM): 100%
- remaining binding at 10 µM (MAP3K15; 10 μM): 100%
- remaining binding at 5 µM (ERK8; 5 μM): 94%
- remaining binding at 10 µM (ERK8; 10 μM): 100%
- remaining binding at 5 µM (TLK1; 5 μM): 93%
- remaining binding at 10 µM (TLK1; 10 μM): 97%
- remaining binding at 5 µM (MAP4K3; 5 μM): 75%
- remaining binding at 10 µM (MAP4K3; 10 μM): 91%
- remaining binding at 5 µM (RIOK3; 5 μM): 100%
- remaining binding at 10 µM (RIOK3; 10 μM): 100%
- remaining binding at 5 µM (PCTK3; 5 μM): 82%
- remaining binding at 10 µM (PCTK3; 10 μM): 100%
- remaining binding at 5 µM (MYLK2; 5 μM): 100%
- remaining binding at 10 µM (MYLK2; 10 μM): 82%
- remaining binding at 5 µM (EPHB3; 5 μM): 96%
- remaining binding at 10 µM (EPHB3; 10 μM): 100%
- remaining binding at 5 µM (FRK; 5 μM): 100%
- remaining binding at 10 µM (FRK; 10 μM): 99%
- remaining binding at 5 µM (ACVR2A; 5 μM): 100%
- remaining binding at 10 µM (ACVR2A; 10 μM): 93%
- remaining binding at 5 µM (MST3; 5 μM): 95%
- remaining binding at 10 µM (MST3; 10 μM): 96%
- remaining binding at 5 µM (EPHA3; 5 μM): 80%
- remaining binding at 10 µM (EPHA3; 10 μM): 100%
- remaining binding at 5 µM (OSR1; 5 μM): 100%
- remaining binding at 10 µM (OSR1; 10 μM): 87%
- remaining binding at 5 µM (MAP4K5; 5 μM): 100%
- remaining binding at 10 µM (MAP4K5; 10 μM): 85%
- remaining binding at 5 µM (CSNK1A1; 5 μM): 100%
- remaining binding at 10 µM (CSNK1A1; 10 μM): 86%
- remaining binding at 5 µM (PRKD3; 5 μM): 100%
- remaining binding at 10 µM (PRKD3; 10 μM): 78%
- remaining binding at 5 µM ([1]; 5 μM): 83%
- remaining binding at 10 µM ([1]; 10 μM): 94%
- remaining binding at 5 µM ([2]; 5 μM): 94%
- remaining binding at 10 µM ([2]; 10 μM): 57%
- remaining binding at 5 µM (CSK; 5 μM): 96%
- remaining binding at 10 µM (CSK; 10 μM): 100%
- remaining binding at 5 µM (PKAC-alpha; 5 μM): 93%
- remaining binding at 10 µM (PKAC-alpha; 10 μM): 100%
- remaining binding at 5 µM (CSNK1G2; 5 μM): 100%
- remaining binding at 10 µM (CSNK1G2; 10 μM): 100%
- remaining binding at 5 µM (PYK2; 5 μM): 100%
- remaining binding at 10 µM (PYK2; 10 μM): 100%
- remaining binding at 5 µM (ULK3; 5 μM): 100%
- remaining binding at 10 µM (ULK3; 10 μM): 100%
- remaining binding at 5 µM (ITK; 5 μM): 100%
- remaining binding at 10 µM (ITK; 10 μM): 90%
- remaining binding at 5 µM (CDK8; 5 μM): 94%
- remaining binding at 10 µM (CDK8; 10 μM): 100%
- remaining binding at 5 µM (PIK3C2B; 5 μM): 100%
- remaining binding at 10 µM (PIK3C2B; 10 μM): 100%
- remaining binding at 5 µM (IRAK3; 5 μM): 92%
- remaining binding at 10 µM (IRAK3; 10 μM): 82%
- remaining binding at 5 µM (PFCDPK1(P.falciparum); 5 μM): 100%
- remaining binding at 10 µM (PFCDPK1(P.falciparum); 10 μM): 100%
- remaining binding at 5 µM (NDR2; 5 μM): 100%
- remaining binding at 10 µM (NDR2; 10 μM): 100%
- remaining binding at 5 µM (MARK1; 5 μM): 89%
- remaining binding at 10 µM (MARK1; 10 μM): 100%
